According to PubChem BioAssay AID743471 (Broad Institute, 2014):
Active and inactive are the calls of the source.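 The calls were made as follows: active = fitted curve drops past -35% activity change at a concentration up to twice the top valid tested dose; inactive = the rest, including activity in the opposite direction.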

Columns and labels:
[1] = test system: HepG2 viability, ATP luminescence (CellTiter-Glo), 72 h; experiment: viability loss in HepG2 hepatoma cells – cell-based, luminescence, dry powder, set 12, cytotoxicity control, dose response (AID 743471)
[2] = as above; conditions: HepG2 viability, ATP luminescence (CellTiter-Glo), 72 h

| Compound | AC35 [1] [µM] | activity change, negative = cytotoxicity ([2]; at 26 µM (top of the series)) | other results |
| --- | --- | --- | --- |
| N#CC1=C(N)Oc2cc(O)ccc2C1c1cccc(Br)c1 (stereo not drawn) | 13.7 |  |  |
| CCC(C)(C)C(=O)O[C@H]1C[C@@H](C)C=C2C=C[C@H](C)[C@H](CC[C@@H]3C[C@@H](O)CC(=O)O3)[C@H]21 |  | 1.04% (inactive) |  |
| COc1ccc(S(=O)(=O)N2CC[C@@H]3[C@H](CO)Nc4ccc(-c5ccc(C#N)cc5)cc4[C@@H]32)cc1 |  | -32.1% (inactive) |  |
| CC[C@@]1(O)C(=O)OCc2c1cc1n(c2=O)Cc2cc3c(CN(C)C)c(O)ccc3nc2-1 | 2.2 |  |  |
| Nc1ncnc2c1c(-c1cccc(OCc3ccccc3)c1)cn2C1CC(CN2CCCC2)C1 (stereo not drawn) | 9.61 |  |  |
| Cc1ccc([N+](=O)[O-])cc1S(=O)(=O)N(C)C |  | -2.85% (inactive) |  |
| C[C@@]1(C(=O)Nc2ccc(F)nc2)CCCN1c1nc(Nc2cc(C3CC3)[nH]n2)c2cccn2n1 |  |  | activity change, negative = cytotoxicity ([2]; at 12 µM (top of the series)): -31.6% (inactive) |
| N#CC1=C(N)Oc2cc3c(cc2C1c1cccc(Br)c1)OCO3 (stereo not drawn) |  |  | activity change, negative = cytotoxicity ([2]; at 8 µM (top of the series)): -4.83% (inactive) |
| N#CC1=C(N)Oc2cc(N)ccc2C12C(=O)Nc1ccc(Br)cc12 (stereo not drawn) |  | -10.7% (inactive) |  |
| Cc1ccc(C2C(C#N)=C(N)Oc3cc(N)ccc32)cc1 (stereo not drawn) |  | 1.29% (inactive) |  |
| N#CC1=C(N)Oc2cc(N)ccc2C1c1ccccc1Cl (stereo not drawn) |  | -2.14% (inactive) |  |
| CCOC(=O)CCNc1cc(N2CCc3ccccc3CC2)nc(-c2ccccn2)n1 | 16.5 |  |  |
| COc1ccccc1-c1nnc2n1N=C(c1ccc3c(c1)OCO3)CS2 |  | -11.4% (inactive) |  |
| COc1ccc(-c2ccc3c(c2)[C@H]2[C@H](CCN2S(=O)(=O)c2ccc(OC)cc2)[C@@H](CO)N3)cc1 | 21.2 |  |  |
| CC(C)N1c2ccccc2C(c2ccc(F)cc2)C1/C=C/C(O)CC(O)CC(=O)O (stereo not drawn) | 22.3 |  |  |
| COc1ccc(C2=Nn3c(nnc3-c3ccccc3F)SC2)cc1OC | 20.8 |  |  |
| COc1ccc(NC(=O)Nc2ccc3c(c2)C(=O)N([C@@H](C)CO)C[C@H](C)[C@H](CN(C)Cc2ccc4c(c2)OCO4)O3)cc1 |  |  | activity change, negative = cytotoxicity ([2]; at 12 µM (top of the series)): -13.2% (inactive) |
| CC1(C)CC(c2nc(-c3ccc4ccc(-c5ccccc5)nc4c3)c3c(N)nccn23)C1 | 7.54 |  |  |
| COc1ccccc1-c1nnc2n1N=C(c1ccc(O)c(O)c1)CS2 | 19.2 |  |  |
| Nc1ccn([C@@H]2O[C@H](CO)[C@H](O)C2O)c(=O)n1 (stereo partly drawn) | 3.04 |  |  |
| CN1c2ccc(-c3ccc(C#N)cc3)cc2[C@H]2[C@H](CCN2S(=O)(=O)c2cccc(F)c2)[C@H]1CO |  | -20.9% (inactive) |  |
| CCc1c2c(nc3ccc(O)cc13)-c1cc3c(c(=O)n1C2)COC(=O)C3(O)CC (stereo not drawn) | 0.241 |  |  |
| Cc1ccccc1C1C(C#N)=C(N)Oc2cc(N)ccc21 (stereo not drawn) |  | 0.564% (inactive) |  |
| COC(=O)c1ccc(C2C(C#N)=C(N)Oc3cc(N)ccc32)cc1 (stereo not drawn) |  | 6.98% (inactive) |  |
| COc1ccc(C2=Nn3c(nnc3-c3ccccc3)SC2)cc1OC | 20.2 |  |  |
| COc1cc(Nc2ncc3c(n2)-c2ccc(Cl)cc2C(c2c(F)cccc2OC)=NC3)ccc1C(=O)O |  | -12.9% (inactive) |  |

| Compound | AC35 [1] [µM] | activity change, negative = cytotoxicity ([2]; at 26 µM (top of the series)) | other results |
| --- | --- | --- | --- |
| Cc1nc(Nc2ncc(C(=O)Nc3c(C)cccc3Cl)s2)cc(N2CCN(CCO)CC2)n1 | 12.5 |  |  |
| Cc1cccc(C2C(C#N)=C(N)Oc3cc(N)ccc32)c1 (stereo not drawn) |  | -14.7% (inactive) |  |
| CCN(CCO)CCCOc1ccc2c(Nc3cc(CC(=O)Nc4cccc(F)c4)[nH]n3)ncnc2c1 |  |  | activity change, negative = cytotoxicity ([2]; at 0.8 µM (top of the series)): 6.31% (inactive) |
| N#CC1=C(N)Oc2cc(N)ccc2C1c1cccc(Br)c1 (stereo not drawn) |  | -3.92% (inactive) |  |
| Cc1cc(Nc2cc(N3CCN(C)CC3)nc(Sc3ccc(NC(=O)C4CC4)cc3)n2)n[nH]1 | 8.49 |  |  |
| N#CC1=C(N)Oc2cc(N)ccc2C1c1ccc2ccccc2c1 (stereo not drawn) |  | -25.4% (inactive) |  |
| COc1ccc(S(=O)(=O)N2CC[C@@H]3[C@@H](CO)Nc4ccc(-c5cccc(C#N)c5)cc4[C@@H]32)cc1 | 14.9 |  |  |
| COc1ccccc1S(=O)(=O)N1CC[C@@H]2[C@@H](CO)Nc3ccc(-c4ccc(C#N)cc4)cc3[C@@H]21 |  | -11.4% (inactive) |  |
| CN1CCN(CCOc2cc(OC3CCOCC3)c3c(Nc4c(Cl)ccc5c4OCO5)ncnc3c2)CC1 | 25.4 |  |  |
| COc1cc(C2C(C#N)=C(N)Oc3cc(N(C)C)ccc32)cc2c1OCO2 (stereo not drawn) |  | -11.7% (inactive) |  |
| N#CC1=C(N)Oc2cc(OC(=O)c3ccccc3)ccc2C1c1cccc(Br)c1 (stereo not drawn) |  | -8.31% (inactive) |  |
| COc1ccc(-c2cc(NC=O)c3ncc(-c4ccc(OC)c(OC)c4)n3c2)cc1 | 3.25 |  |  |
| Clc1ccccc1-c1nnc2n1N=C(c1ccc3c(c1)OCO3)CS2 |  | -25.1% (inactive) |  |
| COc1ccc(S(=O)(=O)N2CC[C@@H]3[C@@H](CO)Nc4ccc(-c5ccc(C#N)cc5)cc4[C@@H]32)cc1 | 12.2 |  |  |
| CC[C@]1(O)CC2CN(CCc3c([nH]c4ccccc34)[C@@](C(=O)OC)(c3cc4c(cc3OC)N(C=O)[C@H]3[C@@](O)(C(=O)OC)[C@H](OC(C)=O)[C@]5(CC)C=CCN6CC[C@]43[C@@H]65)C2)C1 (stereo partly drawn) |  |  | activity change, negative = cytotoxicity ([2]; at 0.8 µM (top of the series)): -12.1% (inactive) |
| COc1ccc(C2C(C#N)=C(N)Oc3cc(N)ccc32)cc1 (stereo not drawn) |  | -5.71% (inactive) |  |
| N#CC1=C(N)Oc2cc(N)ccc2C1c1ccccc1 (stereo not drawn) | 15 |  |  |
| COc1cccc2c1C(=O)c1c(O)c3c(c(O)c1C2=O)C[C@@](O)(C(=O)CO)C[C@@H]3O[C@H]1C[C@H](N)[C@H](O)[C@H](C)O1 | 0.0577 |  |  |
| CCCCc1ccc2nc(NC(=O)OC)[nH]c2c1 |  | -18.5% (inactive) |  |
| CC(C)(O)CCc1ccc(O)c2c(=O)c3c(O)c4c(cc3oc12)O[C@H]1OC=C[C@@]41O | 0.065 |  |  |
| Cc1ccc(S(=O)(=O)N2CC[C@@H]3[C@@H](CO)Nc4ccc(-c5ccc(C#N)cc5)cc4[C@@H]32)cc1 |  | -7.83% (inactive) |  |
| COc1ccc(C2CNC(=O)C2)cc1OC1CCCC1 (stereo not drawn) |  | 15.7% (inactive) |  |
| CN(C(=O)CCCOc1ccc2[nH]c(=O)ccc2c1)C1CCCCC1 |  | -11.4% (inactive) |  |
| Cn1cc(-c2ccncc2)c(-c2ccc(OCc3ccc4ccccc4n3)cc2)n1 | 12.9 |  |  |
| CCC(C)C(=O)OC1CC(C)C=C2C=CC(C)C(CCC(O)CC(O)CC(=O)O)C21 (stereo not drawn) | 88 |  |  |
| CN(C)c1ccc2c(c1)OC(N)=C(C#N)C2c1cccc(F)c1 (stereo not drawn) |  | -8.25% (inactive) |  |

| Compound | AC35 [1] [µM] | activity change, negative = cytotoxicity ([2]; at 26 µM (top of the series)) | other results |
| --- | --- | --- | --- |
| O=C(c1cc(Cc2n[nH]c(=O)c3ccccc23)ccc1F)N1CCN(C(=O)C2CC2)CC1 |  |  | activity change, negative = cytotoxicity ([2]; at 110 µM (top of the series)): -17.3% (inactive) |
| COc1cccc(S(=O)(=O)N2CC[C@@H]3[C@@H](CO)Nc4ccc(-c5ccc(C#N)cc5)cc4[C@@H]32)c1 |  |  | activity change, negative = cytotoxicity ([2]; at 8 µM (top of the series)): 25.7% (inactive) |
| COc1ccc(S(=O)(=O)N(C(C)=O)c2ccc(OC(C)=O)c3ccccc23)cc1[N+](=O)[O-] |  | -15.5% (inactive) |  |
| N#CC1=C(N)Oc2cc(N)ccc2C1c1ccc(Cl)cc1 (stereo not drawn) |  | -15.5% (inactive) |  |
| COc1ccc(CNc2nc(N3CCC[C@H]3CO)ncc2C(=O)NCc2ncccn2)cc1Cl |  | -10.6% (inactive) |  |
| Cc1c([C@H](C(Cl)Cl)[C@H](O)[C@H]2C[C@H](C)C(=O)O2)ccc2c1C(=O)[C@H]1[C@H]2C[C@@H](Br)[C@@]23O[C@@H](CO[C@H]2O)C[C@]13C |  | -19.2% (inactive) |  |
| COc1cccc(C2C(C#N)=C(N)Oc3cc(N)ccc32)c1 (stereo not drawn) |  | -11.2% (inactive) |  |
| COc1ccc(-c2ccc3c(c2)[C@H]2[C@H](CCN2S(=O)(=O)c2ccc(OC)cc2)[C@@H](CO)N3C)cc1 | 21.4 |  |  |
| COc1ccc(C2=Nn3c(nnc3-c3ccccc3Cl)SC2)cc1OC | 15.5 |  |  |
| Clc1ccc(-c2cnc3ccc(-c4ccccc4)cn23)cc1 | 3.58 |  |  |
| COc1ccc(OC)c(-c2nnc3n2N=C(c2ccc(OC)c(OC)c2)CS3)c1 |  | -21.2% (inactive) | activity change, negative = cytotoxicity ([2]; at 12 µM (top of the series)): -16.5% (inactive) |
| O=C(Nc1c(Cl)cncc1Cl)c1ccc(OC(F)F)c(OCC2CC2)c1 |  | 5.78% (inactive) |  |
| N#CC1=C(N)Oc2ccc3ccccc3c2C1c1cccc(F)c1 (stereo not drawn) | 16.4 |  |  |
| O=C(Cc1ccc(-c2ccc(OCCN3CCOCC3)cc2)cn1)NCc1ccccc1 |  |  | activity change, negative = cytotoxicity ([2]; at 12 µM (top of the series)): -10.2% (inactive) |
| C[C@]1(c2nc3c(C(N)=O)cccc3[nH]2)CCCN1 |  | -5.99% (inactive) |  |
| COc1ccc(-c2cc(NC(C)=O)c3ncc(-c4ccc(OC)c(OC)c4)n3c2)cc1 | 17.9 |  |  |
| COc1ccc(C2=Nn3c(nnc3-c3ccccc3OC)SC2)cc1OC | 0.53 |  |  |
| O=P1(NCCCl)OCCCN1CCCl (stereo not drawn) |  |  | activity change, negative = cytotoxicity ([2]; at 50 µM (top of the series)): 7.58% (inactive) |
| N#Cc1ccc(-c2ccc3c(c2)[C@H]2[C@H](CCN2S(=O)(=O)c2ccccc2F)[C@@H](CO)N3)cc1 |  | -18.6% (inactive) |  |
| COc1cc([C@@H]2c3cc4c(cc3[C@@H](O[C@@H]3O[C@@H]5CO[C@@H](C)O[C@H]5[C@H](O)[C@H]3O)[C@H]3COC(=O)[C@H]23)OCO4)cc(OC)c1O |  |  | activity change, negative = cytotoxicity ([2]; at 1.35 µM (top of the series)): -5.5% (inactive) |
| N#Cc1ccc(-c2ccc3c(c2)[C@H]2[C@H](CCN2S(=O)(=O)c2cccc(F)c2)[C@@H](CO)N3)cc1 | 24.5 |  |  |
| CN1c2ccc(-c3ccc(C#N)cc3)cc2[C@H]2[C@H](CCN2S(=O)(=O)c2ccc(F)cc2)[C@H]1CO |  | 20.9% (inactive) |  |
| COc1ccccc1C1C(C#N)=C(N)Oc2cc(N)ccc21 (stereo not drawn) |  | 4.04% (inactive) |  |
| COc1ccc(S(=O)(=O)N2CC[C@@H]3[C@@H](CO)N(C)c4ccc(-c5ccc(F)cc5)cc4[C@@H]32)cc1 |  | -2.59% (inactive) |  |
| N#CC1=C(N)Oc2cc(N)ccc2C1c1cccc(F)c1 (stereo not drawn) |  | -15.7% (inactive) |  |
